Data set [1] in a line: Selectivity index, ratio of CC50 for cytotoxicity against human A549 cells harboring ACE2-CI33 assessed as cell viability by celltiter glo assay to EC50 for antiviral activity against SARS-CoV-2 Wuhan infected in human A549 cells harboring ACE2-Cl33. To be noted: read-out: Ratio CC50/EC50. In kind it is toxicity, cell-based.
The subject of data set [2] is SARS-CoV-2. The data set can be described thus: Antiviral activity against SARS-CoV-2 Wuhan infected in human A549 cells harboring ACE2-Cl33 at 0.1 MOI assessed as inhibition of viral replication pretreated with compounds for 2 hrs followed by infection for 1 hr and measured after 72 hrs post-infection by qRT-PCR analysis. In kind it is functional, organism-based. The settings on record: Severe acute respiratory syndrome coronavirus 2, Wuhan.

Data set [3] is described as follows: Selectivity index, ratio of CC50 for cytotoxicity against human Caco-2 cells harboring ACE2-CI33 assessed as cell viability by celltiter glo assay to EC50 for antiviral activity against SARS-CoV-2 Wuhan infected in human A549 cells harboring ACE2-Cl33. The data set is classed as toxicity, cell-based. To be noted: read-out: Ratio CC50/EC50.
Data set [4] relates to SARS-CoV-2. The data set can be described thus: Antiviral activity against SARS-CoV-2 Wuhan infected in human Caco-2 cells harboring ACE2-Cl33 at 0.1 MOI assessed as inhibition of viral replication pretreated with compounds for 2 hrs followed by infection for 1 hr and measured after 72 hrs post-infection by qRT-PCR analysis. To be noted: Severe acute respiratory syndrome coronavirus 2, Wuhan. In kind it is functional, organism-based.

Data set [5] relates to SARS-CoV-2. As to the kind of experiment: Antiviral activity against SARS-CoV-2 Delta B1.617.2 infected in human A549 cells harboring ACE2-Cl33 at 0.1 MOI assessed as inhibition of viral replication pretreated with compounds for 2 hrs followed by infection for 1 hr and measured after 72 hrs post-infection by qRT-PCR analysis. The data set is classed as functional, organism-based. To be noted: Severe acute respiratory syndrome coronavirus 2, Delta B1.617.2, A549.

As to `CN(C)CCCCNCc1ccc(-c2ccc3ccc4ccc(-c5ccc(CNCCCCN(C)C)cc5)nc4c3n2)cc1`, the selectivity ratio in data set [1] is greater than 1.09. Moreover, in the data set with SARS-CoV-2 [2], the EC50 came out at 9170 nM.
Take `CN(C)CCCCNCc1ccc(-c2nc(-c3ccc(CNCCCCN(C)C)cc3)c3ncn(-c4ccccc4)c3n2)cc1`: the selectivity ratio in data set [1] was no less than 2.68.
Still for that read-out and setting: under `CCN(CC)CCCCNCc1ccc(-c2cc3c(ccn3-c3ccccc3)c(-c3ccc(CNCCCCN(CC)CC)cc3)n2)cc1` stands greater than 13.9; under `CN(C)CCCNCc1ccc(-c2cn(-c3ccc(CNCCCN(C)C)cc3)c3ncnc(-c4ccc(CNCCCN(C)C)cc4)c23)cc1`, greater than 1.43.
Consider `CN1CCN(CCCCNCc2ccc(-c3ccc4ccc5ccc(-c6ccc(CNCCCCN7CCN(C)CC7)cc6)nc5c4n3)cc2)CC1`, for which the EC50 with SARS-CoV-2 [2] is greater than 10000 nM.
Regarding `CN1CCN(CCCCNCc2ccc(-c3cc(-c4ccc(CNCCCCN5CCN(C)CC5)cc4)c4ccn(-c5ccccc5)c4c3)cc2)CC1`, the selectivity ratio in data set [1] worked out at 2.74.
Same read-out and setting: under `CN(C)CCCCNCc1ccc(-c2cc3c(ccn3-c3ccccc3)c(-c3ccc(CNCCCCN(C)C)cc3)n2)cc1` stands 2.18; under `CN(C)CCCCNCc1ccc(-c2nc(-c3ccc(CNCCCCN(C)C)cc3)c3ccn(-c4ccc(CNCCCCN(C)C)cc4)c3n2)cc1`, 6.67.
Same read-out and setting: then `CN(C)CCCCNCc1ccc(-c2cc(-c3ccc(CNCCCCN(C)C)cc3)c3ccn(-c4ccccc4)c3n2)cc1`, with 7.38.
In the case of `CN(C)CCCNCc1ccc(-c2nc(-c3ccc(CNCCCN(C)C)cc3)c3ccn(-c4ccc(CNCCCN(C)C)cc4)c3n2)cc1`, the results for the selectivity ratio in data set [1] and in data set [3] were greater than 14.6 and no less than 4.57, respectively. Further, the EC50 with SARS-CoV-2 [4] was found to be 1540 nM; in the data set with SARS-CoV-2 [2], 436 nM.
As to `CN(C)CCCCNCc1ccc(-c2nc(-c3ccccc3)c3ccn(-c4ccc(CNCCCCN(C)C)cc4)c3n2)cc1`, the selectivity ratio in data set [1] worked out at 2.64. The EC50 in the data set on SARS-CoV-2 [2] was determined as 920 nM.
For `O=c1c(O)cc([C@H]2Oc3cc(O)cc(O)c3C[C@H]2O)cc2c([C@H]3Oc4cc(O)cc(O)c4C[C@H]3O)cc(O)c(O)c12` [THEAFLAVIN], the selectivity ratio in data set [1] was greater than 83.3.
On the same count and under the same terms, under `CN(C)CCCCNCc1ccc(-c2nc(-c3ccc(CNCCCCN(C)C)cc3)c3c(ccn3-c3ccccc3)n2)cc1` stands greater than 15.1; under `CN(C)CCCCCNCc1ccc(-c2cc3c(ccn3-c3ccccc3)c(-c3ccc(CNCCCCCN(C)C)cc3)n2)cc1`, 8.18.
As to `CN(C)CCCCCNCc1ccc(-c2cc(-c3ccc(CNCCCCCN(C)C)cc3)c3ccn(-c4ccccc4)c3c2)cc1`, the selectivity ratio in data set [1] worked out at 2.35; in data set [3] it was 1.88. In addition, the EC50 is 1280 nM in the data set with SARS-CoV-2 [5], 946 nM in the data set on SARS-CoV-2 [4] and 1320 nM in the data set with SARS-CoV-2 [2].
Take `CCC(CC)COC(=O)[C@H](C)N[P@](=O)(OC[C@H]1O[C@@](C#N)(c2ccc3c(N)ncnn23)[C@H](O)[C@@H]1O)Oc1ccccc1` [REMDESIVIR]: the selectivity ratio in data set [1] was greater than 1.18.
On the same count and under the same terms, under `CN(C)CCCCNCc1ccc(-c2cn(-c3ccccc3)c3ncnc(-c4ccc(CNCCCCN(C)C)cc4)c23)cc1` stands greater than 9.3.
In the case of `CN(C)CCCCNCc1ccc(-c2cc(-c3ccc(CNCCCCN(C)C)cc3)c3ccn(-c4ccccc4)c3c2)cc1`, the selectivity ratio was found to be 1.88 in data set [1] and 0.93 in data set [3]. Besides, the results for the EC50 in the data set with SARS-CoV-2 [5], with SARS-CoV-2 [4] and with SARS-CoV-2 [2] were 681 nM, 787 nM and 528 nM, respectively.

These data come from ChEMBL document CHEMBL6177988, “Design, synthesis, biophysical and biological evaluation of original condensed pyrrolopyrimidine and pyrrolopyridine ligands as anti-SARS-CoV-2 agents targeting G4” (Eur J Med Chem, 2025).
